# In patent publication US6562862B1, “Methods of inhibiting physiological conditions associated with an excess of neuropeptide Y” (Eli Lilly and Company, priority 1994, dated 2003):
# Biological target: T1, Y1 (Homo sapiens, UniProt P25929)
# T1 construct: In this assay the cell line SK-N-MC was employed; endogenous in cells; host or cells: SK-N-MC cells (homogenate of scraped, pelleted cells), received from Sloane-Kettering Memorial Hospital
# T1 sequence (P25929 1-384): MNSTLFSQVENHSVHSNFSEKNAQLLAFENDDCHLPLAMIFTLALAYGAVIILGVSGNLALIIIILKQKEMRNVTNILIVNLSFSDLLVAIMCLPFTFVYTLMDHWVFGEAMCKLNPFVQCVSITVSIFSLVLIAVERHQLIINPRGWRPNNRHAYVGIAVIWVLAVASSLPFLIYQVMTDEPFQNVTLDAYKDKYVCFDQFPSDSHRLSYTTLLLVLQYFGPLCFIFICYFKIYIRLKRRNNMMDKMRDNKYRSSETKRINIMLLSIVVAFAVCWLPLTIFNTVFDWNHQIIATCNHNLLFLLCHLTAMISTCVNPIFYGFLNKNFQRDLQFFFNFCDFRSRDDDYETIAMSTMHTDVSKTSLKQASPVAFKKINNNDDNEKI
# Test: Neuropeptide Y Binding Assay (125I-peptide YY, SK-N-MC cell homogenate)
# Settings: displacement of 0.1 nM 125I-peptide YY, SK-N-MC cells, about two hours at room temperature
# Method: The biological activity of the compounds of the present invention was evaluated employing an initial screening assay which rapidly and accurately measured the binding of the tested compound to known neuropeptide Y receptor sites. Assays useful for evaluating neuropeptide Y receptor antagonists are well known in the art. See, e.g., U.S. Pat. No. 5,284,839, issued Feb. 8, 1994, which is herein incorporated by reference. See also, M. W. Walker, et al., Journal of Neurosciences, 8:2438-2446 (1988).
# Neuropeptide Y Binding Assay
# The ability of the compounds of the instant invention were assessed as to their ability to bind to neuropeptide Y using a protocol essentially as described in M. W. Walker, et al., supra. In this assay the cell line SK-N-MC was employed. This cell line was received from Sloane-Kettering Memorial Hospital, New York. These cells were cultured in T-150 flasks using Dulbecco's Minimal Essential Media (DMEM) supplemented with 5% fetal calf serum. The cells were manually removed from the flasks by scraping, pelleted, and stored at −70° C.
# The pellets were resuspended using a glass homogenizer in 25 mM HEPES (pH 7.4) buffer containing 2.5 mM calcium chloride, 1 mM magnesium chloride, and 2 mg/L bacitracin. Incubations were performed in a final volume of 200 μl containing 0.1 nM ^125I-peptide YY (2200 Ci/mmol) and 0.2-0.4 mg protein for about two hours at room temperature.
# Nonspecific binding was defined as the amount of radioactivity remaining bound to the tissue after incubating in the presence of 1 μM neuropeptide Y. In some experiments various concentrations of compounds were included in the incubation mixture.
# Incubations were terminated by rapid filtration through glass fiber filters which had been presoaked in 0.3% polyethyleneimine using a 96-well harvester. The filters were washed with 5 ml of 50 mM Tris (pH 7.4) at 4° C. and rapidly dried at 60° C. The filters were then treated with melt-on scintillation sheets and the radioactivity retained on the filters were counted. The results were analyzed using various software packages. Protein concentrations were measured using standard coumassie protein assay reagents using bovine serum albumin as standards.
row,Compound,IC50
1,O=C(c1ccc(OCCN2CCCC2)cc1)c1c(-c2ccc(O)cc2)sc2cc(O)ccc12,~10 µM
2,"COc1ccc2c(C(=O)c3ccc(OCCN4CCCCC4)cc3)c(-c3ccc(O)cc3)sc2c1 [R1=CH3, R2=1-piperidine, R3=H]",~12 µM
3,"O=C(c1ccc(OCCN2CCCCCC2)cc1)c1c(-c2ccc(O)cc2)sc2cc(O)ccc12 [R1=H, R2=1-hexamethylenimino, R3=H]",~20 µM
4,"O=C(c1ccc(OCCN2CCCC2)cc1)c1c(-c2ccc(O)cc2)sc2cc(O)ccc12 [R1=H, R2=1-pyrrolidine, R3=H]",~17 µM
